Source: PubChem BioAssay AID2060902 (Molecular Pharmacology Branch, DTP, NCI, 2025)

System: 485368-065-R3-J5-PDC spheroids with HUVEC/MSC, viability
Test: Anticancer human tumor 485368-065-R3-J5-PDC patient-derived pancreatic carcinoma cell line growth inhibition [RAS]
Conditions: for viability, T/C: stronger effect = lower value
Procedure, shortened: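 Multi-cell-type spheroids: tumor cells plus HUVEC endothelial cells and mesenchymal stem cells. RAS-pathway inhibitors were combined with targeted agents, each dosed in half-log steps down from clinical Cmax, or from 10 microM when Cmax was unknown.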

[1] = curve of first compound, second compound 0.00316 µM
[2] = curve of first compound, second compound 0.01 µM
[3] = curve of first compound, second compound 0.0316 µM
[4] = curve of first compound, second compound 0.1 µM
[5] = curve of first compound, second compound 0.316 µM
[6] = curve of first compound, second compound 1 µM
[7] = second compound 0.00316 µM, first compound 0.0316 µM
[8] = second compound 0.00316 µM, first compound 0.1 µM
[9] = second compound 0.00316 µM, first compound 0.316 µM
[10] = second compound 0.00316 µM, first compound 1 µM
[11] = second compound 0.00316 µM, first compound 3.16 µM
[12] = second compound 0.00316 µM, first compound 10 µM
[13] = second compound 0.01 µM, first compound 0.0316 µM
[14] = second compound 0.01 µM, first compound 0.1 µM
[15] = second compound 0.01 µM, first compound 0.316 µM
[16] = second compound 0.01 µM, first compound 1 µM
[17] = second compound 0.01 µM, first compound 3.16 µM
[18] = second compound 0.01 µM, first compound 10 µM
[19] = second compound 0.0316 µM, first compound 0.0316 µM
[20] = second compound 0.0316 µM, first compound 0.1 µM
[21] = second compound 0.0316 µM, first compound 0.316 µM
[22] = second compound 0.0316 µM, first compound 1 µM
[23] = second compound 0.0316 µM, first compound 3.16 µM
[24] = second compound 0.0316 µM, first compound 10 µM
[25] = second compound 0.1 µM, first compound 0.0316 µM
[26] = second compound 0.1 µM, first compound 0.1 µM
[27] = second compound 0.1 µM, first compound 0.316 µM
[28] = second compound 0.1 µM, first compound 1 µM
[29] = second compound 0.1 µM, first compound 3.16 µM
[30] = second compound 0.1 µM, first compound 10 µM
[31] = second compound 0.316 µM, first compound 0.0316 µM
[32] = second compound 0.316 µM, first compound 0.1 µM
[33] = second compound 0.316 µM, first compound 0.316 µM
[34] = second compound 0.316 µM, first compound 1 µM
[35] = second compound 0.316 µM, first compound 3.16 µM
[36] = second compound 0.316 µM, first compound 10 µM
[37] = second compound 1 µM, first compound 0.0316 µM
[38] = second compound 1 µM, first compound 0.1 µM
[39] = second compound 1 µM, first compound 0.316 µM
[40] = second compound 1 µM, first compound 1 µM
[41] = second compound 1 µM, first compound 3.16 µM
[42] = second compound 1 µM, first compound 10 µM
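Further: spheroids exposed to agents for seven days before readout.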

Compound: C[C@@H](NC(=O)c1ncnc(N)c1Cl)c1ncc(C(=O)Nc2cc(C(F)(F)F)c(Cl)cn2)s1 + C=CC(=O)N1CCN(c2nc(OCC3CCCN3C)nc3c(F)c(-c4nc(N)cc(C)c4C(F)(F)F)c(Cl)cc23)C(C)C1
- IC50 [1]: > 10 µM
- IC50 [2]: > 10 µM
- IC50 [3]: > 10 µM
- IC50 [4]: > 10 µM
- IC50 [5]: > 10 µM
- IC50 [6]: > 10 µM
- viability, T/C [7]: 119%
- viability, T/C [8]: 99.9%
- viability, T/C [9]: 104%
- viability, T/C [10]: 95%
- viability, T/C [11]: 86.6%
- viability, T/C [12]: 73.7%
- viability, T/C [13]: 103%
- viability, T/C [14]: 105%
- viability, T/C [15]: 95.8%
- viability, T/C [16]: 104%
- viability, T/C [17]: 92.1%
- viability, T/C [18]: 77%
- viability, T/C [19]: 107%
- viability, T/C [20]: 94.8%
- viability, T/C [21]: 104%
- viability, T/C [22]: 104%
- viability, T/C [23]: 91.8%
- viability, T/C [24]: 78.6%
- viability, T/C [25]: 108%
- viability, T/C [26]: 103%
- viability, T/C [27]: 107%
- viability, T/C [28]: 103%
- viability, T/C [29]: 94.6%
- viability, T/C [30]: 77%
- viability, T/C [31]: 104%
- viability, T/C [32]: 106%
- viability, T/C [33]: 107%
- viability, T/C [34]: 102%
- viability, T/C [35]: 98.6%
- viability, T/C [36]: 80.2%
- viability, T/C [37]: 105%
- viability, T/C [38]: 111%
- viability, T/C [39]: 94.7%
- viability, T/C [40]: 104%
- viability, T/C [41]: 96.5%
- viability, T/C [42]: 81.4%

Compound: Nc1ccn(C2OC(CO)C(O)C2(F)F)c(=O)n1 (stereo not drawn) + C#Cc1c(F)ccc2cc(O)cc(-c3ncc4c(N5CC6CCC(C5)N6)nc(OCC56CCCN5CC(F)C6)nc4c3F)c12
- IC50 [3]: 0.00636 µM
- IC50 [4]: 0.0063 µM
- IC50 [5]: 0.00651 µM
- IC50 [6]: 0.00609 µM
- IC50 (curve of first compound, second compound 3.16 µM): 0.00596 µM
- IC50 (curve of first compound, second compound 10 µM): < 0.00316 µM
- viability, T/C (second compound 0.0316 µM, first compound 0.00316 µM): 98.4%
- viability, T/C (second compound 0.0316 µM, first compound 0.01 µM): 18.8%
- viability, T/C [19]: 8.96%
- viability, T/C [20]: 11.8%
- viability, T/C [21]: 11.1%
- viability, T/C [22]: 14.4%
- viability, T/C (second compound 0.1 µM, first compound 0.00316 µM): 93.6%
- viability, T/C (second compound 0.1 µM, first compound 0.01 µM): 20.7%
- viability, T/C [25]: 10.9%
- viability, T/C [26]: 9.95%
- viability, T/C [27]: 11.6%
- viability, T/C [28]: 12.8%
- viability, T/C (second compound 0.316 µM, first compound 0.00316 µM): 94.5%
- viability, T/C (second compound 0.316 µM, first compound 0.01 µM): 23.5%
- viability, T/C [31]: 10.9%
- viability, T/C [32]: 10.3%
- viability, T/C [33]: 11.8%
- viability, T/C [34]: 11.8%
- viability, T/C (second compound 1 µM, first compound 0.00316 µM): 90.4%
- viability, T/C (second compound 1 µM, first compound 0.01 µM): 19.5%
- viability, T/C [37]: 12.1%
- viability, T/C [38]: 8.97%
- viability, T/C [39]: 10.8%
- viability, T/C [40]: 11%
- viability, T/C (second compound 3.16 µM, first compound 0.00316 µM): 89%
- viability, T/C (second compound 3.16 µM, first compound 0.01 µM): 18.3%
- viability, T/C (second compound 3.16 µM, first compound 0.0316 µM): 9.24%
- viability, T/C (second compound 3.16 µM, first compound 0.1 µM): 9.65%
- viability, T/C (second compound 3.16 µM, first compound 0.316 µM): 9.37%
- viability, T/C (second compound 3.16 µM, first compound 1 µM): 9.7%
- viability, T/C (second compound 10 µM, first compound 0.00316 µM): 37.7%
- viability, T/C (second compound 10 µM, first compound 0.01 µM): 20.8%
- viability, T/C (second compound 10 µM, first compound 0.0316 µM): 8.12%
- viability, T/C (second compound 10 µM, first compound 0.1 µM): 7.5%
- viability, T/C (second compound 10 µM, first compound 0.316 µM): 8.95%
- viability, T/C (second compound 10 µM, first compound 1 µM): 9.6%

Compound: CC(=O)OC12COC1CC(O)C1(C)C(=O)C(O)C3=C(C)C(OC(=O)C(O)C(NC(=O)OC(C)(C)C)c4ccccc4)CC(O)(C(OC(=O)c4ccccc4)C21)C3(C)C (stereo not drawn)
- viability, T/C (compound 0.0316 µM): 16.4% [middle of 4 runs]
- viability, T/C (compound 0.1 µM): 15.4% [middle of 4 runs]
- viability, T/C (compound 0.316 µM): 14% [middle of 4 runs]
- viability, T/C (compound 1 µM): 16.1% [middle of 4 runs]
- viability, T/C (compound 3.16 µM): 19.1% [middle of 4 runs]
- viability, T/C (compound 10 µM): 29.6% [middle of 4 runs]
- IC50 (curve of compound): < 0.0316 µM

Compound: CC1(O)CCCC1n1c(=O)c(C(F)F)cc2cnc(NC3CCN(S(C)(=O)=O)CC3)nc21 (stereo not drawn) + C=CC(=O)N1CCN(c2nc(OCC3CCCN3C)nc3c(F)c(-c4nc(N)cc(C)c4C(F)(F)F)c(Cl)cc23)C(C)C1
- IC50 [1]: 0.402 µM
- IC50 [2]: 0.314 µM
- IC50 [3]: 0.298 µM
- IC50 [4]: 0.258 µM
- IC50 [5]: 0.429 µM
- IC50 [6]: 0.75 µM
- viability, T/C [7]: 109%
- viability, T/C [8]: 68.7%
- viability, T/C [9]: 46.7%
- viability, T/C [10]: 48.2%
- viability, T/C [11]: 40.6%
- viability, T/C [12]: 11.1%
- viability, T/C [13]: 107%
- viability, T/C [14]: 69.5%
- viability, T/C [15]: 45.3%
- viability, T/C [16]: 38.8%
- viability, T/C [17]: 42.1%
- viability, T/C [18]: 12.6%
- viability, T/C [19]: 99.3%
- viability, T/C [20]: 62.2%
- viability, T/C [21]: 44.4%
- viability, T/C [22]: 42.2%
- viability, T/C [23]: 45.9%
- viability, T/C [24]: 11.3%
- viability, T/C [25]: 93.9%
- viability, T/C [26]: 62.8%
- viability, T/C [27]: 38.3%
- viability, T/C [28]: 41.9%
- viability, T/C [29]: 47.6%
- viability, T/C [30]: 10.6%
- viability, T/C [31]: 99.7%
- viability, T/C [32]: 64.8%
- viability, T/C [33]: 51.8%
- viability, T/C [34]: 42%
- viability, T/C [35]: 43.4%
- viability, T/C [36]: 12.5%
- viability, T/C [37]: 109%
- viability, T/C [38]: 60%
- viability, T/C [39]: 41.3%
- viability, T/C [40]: 55.7%
- viability, T/C [41]: 44.9%
- viability, T/C [42]: 11.1%
